{"source": "patent US8389513B2", "about": "“2-amino-5,5-difluoro-5,6-dihydro-4H-[1,3]oxazin-4-yl)-phenyl]-amides” (Hoffmann-La Roche Inc., priority 2009, dated 2013)", "note": "Structures can show the parent of a compound that is named as a salt."}
{"target": "T1, BACE2 (Rattus norvegicus, UniProt Q6IE75)", "T1 construct": "endogenous cellular BACE2 in the Ins1e rat cell line; endogenous in cells; host or cells: INS-TMEM27 (INS1e-derived rat cell line with TetOn-inducible full-length hTMEM27)", "T1 sequence (Q6IE75 63-514)": "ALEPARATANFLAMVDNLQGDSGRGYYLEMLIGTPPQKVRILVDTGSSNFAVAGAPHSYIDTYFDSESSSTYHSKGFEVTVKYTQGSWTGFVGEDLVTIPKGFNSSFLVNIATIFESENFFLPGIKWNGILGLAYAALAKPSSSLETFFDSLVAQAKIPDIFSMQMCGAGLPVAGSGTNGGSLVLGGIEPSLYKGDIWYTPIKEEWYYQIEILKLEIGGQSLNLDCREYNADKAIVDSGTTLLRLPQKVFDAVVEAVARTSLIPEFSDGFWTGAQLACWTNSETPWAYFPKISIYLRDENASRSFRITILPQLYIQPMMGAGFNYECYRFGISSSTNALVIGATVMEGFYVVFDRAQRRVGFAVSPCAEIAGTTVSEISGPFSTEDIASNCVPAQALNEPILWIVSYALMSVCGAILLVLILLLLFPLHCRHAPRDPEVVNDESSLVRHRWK", "assay": "Assay for BACE inhibition by measuring cellular TMEM27 cleavage", "format": "cell-based", "details": "INS-TMEM27 cells (INS1e-derived); shed TMEM27 by ELISA; read-out: BACE2 cell act. IC50", "from_the_text": "Assay for BACE Inhibition by Measuring Cellular TMEM27 Cleavage:\nThe assay uses the principle of inhibition of human TMEM27 cleavage by endogenous cellular BACE2 in the Ins1e rat cell line and shedding from the cell surface into the culture medium, followed by detection in an ELISA assay. Inhibition of BACE2 prevents the cleavage and shedding in a dose-dependent manner.\nThe stable cell line “INS-TMEM27” represents an INS1e-derived cell line with inducible expression (using the TetOn system) of full-length hTMEM27 in a doxycycline-dependent manner. The cells are cultured throughout the experiment in RPMI1640+Glutamax (Invitrogen) Penicillin/Streptomycin, 10% Fetal bovine serum, […] pyruvate, […] beta-mercatptoethanol, 100 micrograms/ml G418 and 100 microgram/ml hygromycin and are grown inadherent culture at 37° C. in a standard CO2 cell culture incubator. INS-TMEM27 cells are seeded in 96-well plates. After 2 days in culture, BACE2 inhibitor is added in a range of concentrations as required by the assay and after a further two hours, doxycycline is added to a final concentration of 500 ng/ml. The cells are incubated for a further 46 hours and the supernatant harvested for detection of shed TMEM27.\nAn ELISA assay (using a pair of mouse anti-human-TMEM27 antibodies, raised against the extracellular domain of TMEM27) is used for detection of TMEM27 in the culture medium. An EC50 for BACE2 inhibition is calculated using the ELISA readout for each inhibitor concentration with standard curve-fitting software such as XLFit for the Excel spreadsheet program.", "units": {"IC50": "nM"}}
{"compound": "C[C@]1(c2cc(NC(=O)c3ccn(C(F)F)n3)ccc2F)N=C(N)OCC1(F)F", "note": "[Example 64, 1-Difluoromethyl-1H-pyrazole-3-carboxylic acid [3-((R)-2-amino-5,5-difluoro-4-methyl-5,6-dihydro-4H-[1,3]oxazin-4-yl)-4-fluoro-phenyl]-amide]", "IC50": 13}
{"compound": "C[C@]1(c2cc(NC(=O)c3ccccn3)ccc2F)N=C(N)OCC1(F)F", "note": "[Example 9, Pyridine-2-carboxylic acid [3-((R)-2-amino-5,5-difluoro-4-methyl-5,6-dihydro-4H-[1,3]oxazin-4-yl)-4-fluoro-phenyl]-amide]", "IC50": 82}
{"compound": "C[C@]1(c2cc(NC(=O)c3ccc(F)cn3)ccc2F)N=C(N)OCC1(F)F", "note": "[Example 2, 5-Fluoro-pyridine-2-carboxylic acid [3-((R)-2-amino-5,5-difluoro-4-methyl-5,6-dihydro-4H-[1,3]oxazin-4-yl)-4-fluoro-phenyl]-amide]", "IC50": 56}
{"target": "T2, BACE1 (Homo sapiens, UniProt P56817)", "T2 construct": "Human HEK293 cells which are stably transfected with a vector expressing a cDNA of the human APP wt gene (APP695); endogenous in cells; host or cells: HEK293 stably transfected with human APP695 wt", "T2 sequence (P56817 46-501)": "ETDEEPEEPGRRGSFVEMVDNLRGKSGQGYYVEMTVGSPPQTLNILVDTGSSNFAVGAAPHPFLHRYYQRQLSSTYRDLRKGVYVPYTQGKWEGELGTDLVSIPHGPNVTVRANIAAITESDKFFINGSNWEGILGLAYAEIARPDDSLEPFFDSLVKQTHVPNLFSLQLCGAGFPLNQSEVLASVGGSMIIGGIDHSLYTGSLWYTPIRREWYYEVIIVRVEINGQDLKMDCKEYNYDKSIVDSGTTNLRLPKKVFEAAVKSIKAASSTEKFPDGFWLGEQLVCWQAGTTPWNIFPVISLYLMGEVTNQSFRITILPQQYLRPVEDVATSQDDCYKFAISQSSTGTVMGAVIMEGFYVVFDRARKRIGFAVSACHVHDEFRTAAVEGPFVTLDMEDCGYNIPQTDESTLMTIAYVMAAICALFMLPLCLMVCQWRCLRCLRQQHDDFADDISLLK", "assay": "Cellular Aβ-lowering assay (Aβ40 ELISA)", "format": "cell-based", "details": "HEK293 cells stably expressing human APP695; Aβ40 in culture supernatant; read-out: BACE1 cell act. Aβ40 IC50", "protocol": "Cellular Aβ-Lowering Assay:\nHuman HEK293 cells which are stably transfected with a vector expressing a cDNA of the human APP wt gene (APP695) were used to assess the potency of the compounds in a cellular assay. The cells were seeded in 96-well microtiter plates in cell culture medium (Iscove, plus 10% (v/v) fetal bovine serum, glutamine, penicillin/streptomycin) to about 80% confluence and the compounds were added at a 10× concentration in 1/10 volume of medium without FCS containing 8% DMSO (final concentration of DMSO was kept at 0.8% v/v). After 18-20 hrs incubation at 37° C. and 5% CO2 in a humidified incubator the culture supernatant was harvested for the determination of Aβ40 concentrations. […] Subsequently the wells of the microtiter plate were washed extensively with Tris-buffered saline containing 0.05% Tween 20 and the assay was developed with tetramethylbenzidine/H2O2 in citric acid buffer. After stopping the reaction with one volume 1 NH2SO4 the reaction was measured in an ELISA reader at 450 nm wavelength. The concentrations of Aβ in the culture supernatants were calculated from a standard curve obtained with known amounts of pure Aβ peptide.", "units": {"IC50": "nM"}}
{"compound": "CC1(C)OC(N)=N[C@](C)(c2cc(NC(=O)c3ccc(OCC(F)F)cn3)ccc2F)C1(F)F", "note": "[Example 28, 5-(2,2-Difluoro-ethoxy)-pyridine-2-carboxylic acid [3-((R)-2-amino-5,5-difluoro-4,6,6-trimethyl-5,6-dihydro-4H-[1,3]oxazin-4-yl)-4-fluoro-phenyl]-amide]", "IC50": 200}
{"compound": "C[C@]1(c2cc(NC(=O)c3cocn3)ccc2F)N=C(N)OCC1(F)F", "note": "[Example 55, Oxazole-4-carboxylic acid [3-((R)-2-amino-5,5-difluoro-4-methyl-5,6-dihydro-4H-[1,3]oxazin-4-yl)-4-fluoro-phenyl]-amide]", "IC50": 495}
{"compound": "CCc1nc(C(=O)Nc2ccc(F)c([C@@]3(C)N=C(N)OCC3(F)F)c2)co1", "note": "[Example 56, 2-Ethyl-oxazole-4-carboxylic acid [3-((R)-2-amino-5,5-difluoro-4-methyl-5,6-dihydro-4H-[1,3]oxazin-4-yl)-4-fluoro-phenyl]-amide]", "IC50": 140}
{"compound": "CC1(C)OC(N)=N[C@](C)(c2cc(NC(=O)c3cnc(OCC4CC4)cn3)ccc2F)C1(F)F", "note": "[Example 36, 5-Cyclopropylmethoxy-pyrazine-2-carboxylic acid [3-((R)-2-amino-5,5-difluoro-4,6,6-trimethyl-5,6-dihydro-4H-[1,3]oxazin-4-yl)-4-fluoro-phenyl]-amide]", "IC50": 2460}
{"compound": "C[C@]1(c2cc(NC(=O)c3coc(CCl)n3)ccc2F)N=C(N)OCC1(F)F", "note": "[Example 57, 2-Chloromethyl-oxazole-4-carboxylic acid [3-((R)-2-amino-5,5-difluoro-4-methyl-5,6-dihydro-4H-[1,3]oxazin-4-yl)-4-fluoro-phenyl]-amide]", "IC50": 73}
{"compound": "CC(=O)Nc1ccc(F)c([C@@]2(C)N=C(N)OCC2(F)F)c1", "note": "[Example 73, N-[3-((R)-2-Amino-5,5-difluoro-4-methyl-5,6-dihydro-4H-[1,3]oxazin-4-yl)-4-fluoro-phenyl]-acetamide]", "IC50": 180}
{"compound": "CCn1cc(Cl)c(C(=O)Nc2ccc(F)c([C@@]3(C)N=C(N)OCC3(F)F)c2)n1", "note": "[Example 77, 4-Chloro-1-ethyl-1H-pyrazole-3-carboxylic acid [3-((R)-2-amino-5,5-difluoro-4-methyl-5,6-dihydro-4H-[1,3]oxazin-4-yl)-4-fluoro-phenyl]-amide]", "IC50": 100}
{"compound": "C[C@]1(c2cc(NC(=O)c3nn(CC(F)(F)F)cc3Cl)ccc2F)N=C(N)OCC1(F)F", "note": "[Example 78, 4-Chloro-1-(2,2,2-trifluoro-ethyl)-1H-pyrazole-3-carboxylic acid [3-((R)-2-amino-5,5-difluoro-4-methyl-5,6-dihydro-4H-[1,3]oxazin-4-yl)-4-fluoro-phenyl]-amide]", "IC50": 1770}
{"compound": "C[C@]1(c2cc(NC(=O)c3cnc(OCC4CC4)cn3)ccc2F)N=C(N)OCC1(F)F", "note": "[Example 46, 5-Cyclopropylmethoxy-pyrazine-2-carboxylic acid [3-((R)-2-amino-5,5-difluoro-4-methyl-5,6-dihydro-4H-[1,3]oxazin-4-yl)-4-fluoro-phenyl]-amide]", "IC50": 70}
{"compound": "C[C@]1(c2cc(NC(=O)c3coc(CF)n3)ccc2F)N=C(N)OCC1(F)F", "note": "[Example 79, 2-Fluoromethyl-oxazole-4-carboxylic acid [3-((R)-2-amino-5,5-difluoro-4-methyl-5,6-dihydro-4H-[1,3]oxazin-4-yl)-4-fluoro-phenyl]-amide formate]", "IC50": 3}
{"compound": "C[C@]1(c2cc(NC(=O)c3ccc([N+](=O)[O-])o3)ccc2F)N=C(N)OCC1(F)F", "note": "[Example 81, 5-Nitro-furan-2-carboxylic acid [3-((R)-2-amino-5,5-difluoro-4-methyl-5,6-dihydro-4H-[1,3]oxazin-4-yl)-4-fluoro-phenyl]-amide]", "IC50": 1900}
{"compound": "C[C@]1(c2cc(NC(=O)c3ccc(C(N)=O)cn3)ccc2F)N=C(N)OCC1(F)F", "note": "[Example 72]", "IC50": 230}
{"compound": "C[C@]1(c2cc(NC(=O)c3ccc(C#N)c[n+]3[O-])ccc2F)N=C(N)OCC1(F)F", "note": "[Example 83, 5-Cyano-1-oxy-pyridine-2-carboxylic acid [3-((R)-2-amino-5,5-difluoro-4-methyl-5,6-dihydro-4H-[1,3]oxazin-4-yl)-4-fluoro-phenyl]-amide]", "IC50": 310}
{"compound": "CC1(C)OC(N)=N[C@](C)(c2cc(NC(=O)c3ccc(OCC4CC4)nc3)ccc2F)C1(F)F", "note": "[Example 31, N-[3-((R)-2-Amino-5,5-difluoro-4,6,6-trimethyl-5,6-dihydro-4H-[1,3]oxazin-4-yl)-4-fluoro-phenyl]-6-cyclopropylmethoxy-nicotinamide]", "IC50": 2810}
{"compound": "C[C@]1(c2cc(NC(=O)/C=C/c3ccco3)ccc2F)N=C(N)OCC1(F)F", "note": "[Example 82, (E)-N-[3-((R)-2-Amino-5,5-difluoro-4-methyl-5,6-dihydro-4H-[1,3]oxazin-4-yl)-4-fluoro-phenyl]-3-furan-2-yl-acrylamide]", "IC50": 910}
{"compound": "Cc1conc1C(=O)Nc1ccc(F)c([C@@]2(C)N=C(N)OCC2(F)F)c1", "note": "[Example 61, 4-Methyl-isoxazole-3-carboxylic acid [3-((R)-2-amino-5,5-difluoro-4-methyl-5,6-dihydro-4H-[1,3]oxazin-4-yl)-4-fluoro-phenyl]-amide]", "IC50": 305}
{"compound": "C[C@]1(c2cc(NC(=O)c3ccc(C#CC4CC4)cn3)ccc2F)N=C(N)OCC1(F)F", "note": "[Example 40, 5-Cyclopropylethynyl-pyridine-2-carboxylic acid [3-((R)-2-amino-5,5-difluoro-4-methyl-5,6-dihydro-4H-[1,3]oxazin-4-yl)-4-fluoro-phenyl]-amide]", "IC50": 460}
{"compound": "CC1(C)OC(N)=N[C@](C)(c2cc(NC(=O)c3ccc(OCC(F)(F)C(F)F)cn3)ccc2F)C1(F)F", "note": "[Example 30, 5-(2,2,3,3-Tetrafluoro-propoxy)-pyridine-2-carboxylic acid [3-((R)-2-amino-5,5-difluoro-4,6,6-trimethyl-5,6-dihydro-4H-[1,3]oxazin-4-yl)-4-fluoro-phenyl]-amide]", "IC50": 230}
{"compound": "CC1(C)OC(N)=N[C@](C)(c2cc(NC(=O)c3ccn(C(F)F)n3)ccc2F)C1(F)F", "note": "[Example 38, 1-Difluoromethyl-1H-pyrazole-3-carboxylic acid [3-((R)-2-amino-5,5-difluoro-4,6,6-trimethyl-5,6-dihydro-4H-[1,3]oxazin-4-yl)-4-fluoro-phenyl]-amide]", "IC50": 6}
{"compound": "CCc1ocnc1C(=O)Nc1ccc(F)c([C@@]2(C)N=C(N)OCC2(F)F)c1", "note": "[Example 69, formate]", "IC50": 1480}
